pEC50: −log10 of the molar value.

The record followed here is article PMC8801435, “Legume Alternative Oxidase Isoforms Show Differential Sensitivity to Pyruvate Activation” (Frontiers in Plant Science, 2022).

Common to all, as to assay: O2 consumption (Clark electrode), activation of AOX in inverted membrane vesicles
Assay type in all cases: biochemical

The target in assay [1] is T1, GmAOX2D (Glycine max, UniProt O03376).
T1 construct: gene AOX3; mature form, predicted mitochondrial target peptide removed, new start Met (forward primer encodes M-STLPEVK), pET22b(+), E. coli BHH8 inverted membrane vesicles; apparent 31 kDa; reduced (DTT)
T1 sequence (O03376 51-326): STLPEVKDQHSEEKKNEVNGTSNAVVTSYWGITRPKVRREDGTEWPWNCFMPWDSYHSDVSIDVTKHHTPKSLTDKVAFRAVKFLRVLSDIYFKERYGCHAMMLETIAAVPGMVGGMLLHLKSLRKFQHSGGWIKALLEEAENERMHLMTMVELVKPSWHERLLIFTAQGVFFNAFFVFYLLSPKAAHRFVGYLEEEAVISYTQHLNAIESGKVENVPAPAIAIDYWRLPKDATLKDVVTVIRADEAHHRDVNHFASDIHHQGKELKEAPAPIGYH
As to conditions: activator; 2.5 mM NADH, 5 mM DTT, 1 mM KCN, pH 7.0; read-out: Present study / K1/2 PYR. The text has this: O2 consumption (Clark electrode), activation of AOX in inverted membrane vesicles on GmAOX2D

The target in assay [2] is T2, GmAOX2A (Glycine max, UniProt Q41266).
T2 construct: gene AOX2; mature form, predicted mitochondrial target peptide removed, new start Met (forward primer encodes M-MVSPA), pET22b(+), E. coli BHH8 inverted membrane vesicles; apparent 29 kDa; reduced (DTT)
T2 sequence (Q41266 58-333): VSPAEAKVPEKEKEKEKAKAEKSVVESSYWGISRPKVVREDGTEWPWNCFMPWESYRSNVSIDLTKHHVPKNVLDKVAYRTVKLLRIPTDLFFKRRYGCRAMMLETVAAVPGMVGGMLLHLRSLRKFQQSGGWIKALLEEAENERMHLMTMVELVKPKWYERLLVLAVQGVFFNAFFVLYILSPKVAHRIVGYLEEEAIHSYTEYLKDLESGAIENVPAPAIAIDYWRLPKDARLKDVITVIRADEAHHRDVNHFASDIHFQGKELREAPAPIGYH
The note with it: activator; 2.5 mM NADH, 5 mM DTT, 1 mM KCN, pH 7.0; discussion text b26 prints 90 μM; read-out: Present study / K1/2 PYR. The source says: O2 consumption (Clark electrode), activation of AOX in inverted membrane vesicles on GmAOX2A

Assay [3] addresses T3, GmAOX1 (Glycine max, UniProt Q07185).
T3 construct: gene AOX1; mature form, predicted mitochondrial target peptide removed, new start Met (forward primer encodes M-ESTLALS), pET22b(+), E. coli BHH8 inverted membrane vesicles; apparent 28 kDa; reduced (DTT)
T3 sequence (Q07185 42-321): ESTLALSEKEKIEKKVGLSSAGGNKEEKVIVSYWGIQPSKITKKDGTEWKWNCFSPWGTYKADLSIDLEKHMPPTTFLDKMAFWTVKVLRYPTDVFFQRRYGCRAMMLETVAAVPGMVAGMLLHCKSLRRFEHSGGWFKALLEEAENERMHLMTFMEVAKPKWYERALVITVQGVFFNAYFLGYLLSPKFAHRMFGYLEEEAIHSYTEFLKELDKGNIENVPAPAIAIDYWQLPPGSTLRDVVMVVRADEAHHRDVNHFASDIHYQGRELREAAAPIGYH
The note with it: activator; 2.5 mM NADH, 5 mM DTT, 1 mM KCN, pH 7.0; discussion text b26 prints 6 μM; read-out: Present study / K1/2 PYR. The source says: O2 consumption (Clark electrode), activation of AOX in inverted membrane vesicles on GmAOX1

For the molecule `CC(=O)C(=O)O` [pyruvate], the pEC50 in assay [1] was 4.40; in assay [2], 4.00; in assay [3] it was 5.40.
